According to patent US12570659B2, “Bicyclic heteroaryl compounds useful as IRAK4 inhibitors” (BRISTOL-MYERS SQUIBB COMPANY, priority 2019, dated 2026):

Legend:
[1] = target: IRAK4 (Homo sapiens (Human), UniProt Q9NWZ3); experiment: IRAK4 Inhibition Assay; assay type: biochemical; conditions: ATP 500 μM; IRAK4 0.6 nM; 60 min room temperature
Summary of the method: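 Phosphorylated and unphosphorylated fluorescent substrate were resolved by microfluidic electrophoresis after termination with 35 mM EDTA. The room-temperature kinase reaction lasted 60 min after IRAK4, substrates and test compound were combined; vehicle-only defined 0% and no-enzyme 100% inhibition.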

[2] = target: JAK3 kinase (Homo sapiens (Human), UniProt P52333); experiment: JAK3 Homogeneous Time Resolved Fluorescence (HTRF) Assay; assay type: binding; conditions: for IC50: competition binding with fluorescein-labeled ATP competitive probe; for Ratio of JAK3 IC50 to IRAK4 IC50: selectivity for IRAK4 over JAK3
Sequence of JAK3 kinase (P52333 whole entry): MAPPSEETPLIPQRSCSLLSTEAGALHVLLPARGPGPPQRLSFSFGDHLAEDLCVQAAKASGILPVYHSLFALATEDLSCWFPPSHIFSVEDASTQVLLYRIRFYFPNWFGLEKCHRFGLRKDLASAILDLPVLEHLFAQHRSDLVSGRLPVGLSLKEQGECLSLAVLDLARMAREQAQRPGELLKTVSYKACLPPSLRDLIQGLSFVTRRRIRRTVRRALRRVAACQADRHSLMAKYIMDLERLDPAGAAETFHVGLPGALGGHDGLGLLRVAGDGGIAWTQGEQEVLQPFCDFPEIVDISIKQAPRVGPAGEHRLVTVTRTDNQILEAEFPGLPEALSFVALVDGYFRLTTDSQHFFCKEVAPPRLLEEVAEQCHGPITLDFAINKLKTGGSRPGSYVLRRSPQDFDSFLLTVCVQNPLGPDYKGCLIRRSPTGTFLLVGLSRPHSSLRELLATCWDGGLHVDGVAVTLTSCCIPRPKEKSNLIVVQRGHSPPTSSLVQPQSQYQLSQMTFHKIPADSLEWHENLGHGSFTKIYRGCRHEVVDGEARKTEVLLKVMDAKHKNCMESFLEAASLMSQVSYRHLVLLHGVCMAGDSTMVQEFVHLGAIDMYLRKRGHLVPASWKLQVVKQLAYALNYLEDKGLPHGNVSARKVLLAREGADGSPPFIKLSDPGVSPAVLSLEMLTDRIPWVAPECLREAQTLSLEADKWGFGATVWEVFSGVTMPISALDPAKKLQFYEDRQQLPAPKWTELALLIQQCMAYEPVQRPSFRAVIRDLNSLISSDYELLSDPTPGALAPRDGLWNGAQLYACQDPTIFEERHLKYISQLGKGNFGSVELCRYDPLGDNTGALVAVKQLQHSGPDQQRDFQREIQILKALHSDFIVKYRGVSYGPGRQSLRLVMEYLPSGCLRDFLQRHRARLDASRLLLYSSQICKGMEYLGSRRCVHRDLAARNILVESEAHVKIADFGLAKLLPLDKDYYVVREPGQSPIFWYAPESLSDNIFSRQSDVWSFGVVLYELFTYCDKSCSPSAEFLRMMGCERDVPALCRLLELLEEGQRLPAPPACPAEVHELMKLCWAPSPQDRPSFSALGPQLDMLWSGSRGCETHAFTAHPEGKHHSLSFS
Summary of the method: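 IC50 reflects displacement of a fluorescein-labeled ATP-site probe (at its Kd) from 1 nM tagged JAK3, detected via 0.2 nM Tb anti-His or anti-GST antibody. One-hour incubation; 495 and 520 nm emission ratios, background-subtracted, normalized to maximum signal; 11-point percent inhibition, 4-parameter logistic.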

Sequence of IRAK4 (Q9NWZ3 whole entry, species assumed): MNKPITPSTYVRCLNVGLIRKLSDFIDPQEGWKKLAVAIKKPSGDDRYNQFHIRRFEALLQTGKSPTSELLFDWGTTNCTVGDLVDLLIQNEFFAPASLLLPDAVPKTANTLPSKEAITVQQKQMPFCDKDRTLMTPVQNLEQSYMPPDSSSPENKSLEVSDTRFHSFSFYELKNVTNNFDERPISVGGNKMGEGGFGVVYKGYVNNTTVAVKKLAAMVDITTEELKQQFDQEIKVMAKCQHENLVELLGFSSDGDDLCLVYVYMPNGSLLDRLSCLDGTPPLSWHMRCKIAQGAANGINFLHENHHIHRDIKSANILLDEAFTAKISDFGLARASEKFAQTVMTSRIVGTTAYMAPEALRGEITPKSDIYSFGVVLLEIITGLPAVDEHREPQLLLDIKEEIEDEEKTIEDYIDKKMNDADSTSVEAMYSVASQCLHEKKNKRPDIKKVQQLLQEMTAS

Structure (SMILES)	IC50 [1] [nM]	IC50 [2] [nM]	Ratio of JAK3 IC50 to IRAK4 IC50 [2]
CC(C)Nc1c(C(=O)NC[C@@H](F)C(C)(C)O)cnc2cc(-c3cccc(N)c3)nn12 [Example 157, (R)-2-(3-aminophenyl)-N-(2-fluoro-3-hydroxy-3-methylbutyl)-7-(isopropylamino) pyrazolo[1,5-a]pyrimidine-6-carboxamide]	31	> 50000	>1613
CC(C)Nc1c(C(=O)NC[C@@H](F)C(C)(C)O)cnc2cc(-c3cncnc3)nn12 [Example 127, (R)—N-(2-fluoro-3-hydroxy-3-methylbutyl)-7-(isopropylamino)-2-(pyrimidin-5-yl)pyrazolo[1,5-a]pyrimidine-6-carboxamide]	170	> 10000	>59
CC(C)(O)[C@H](F)CNC(=O)c1cnn2cc(-c3ccc(C#N)cn3)cc2c1NC1CCOCC1 [Example 20, (R)-6-(5-cyanopyridin-2-yl)-N-(2-fluoro-3-hydroxy-3-methylbutyl)-4-((tetrahydro-2H-pyran-4-yl)amino)pyrrolo[1,2-b] pyridazine-3-carboxamide]	150	> 50000	>333
CC(C)Nc1c(C(=O)NC[C@@H](F)C(C)(C)O)cnc2cc(-c3ccccc3)nn12 [Example 128, (R)—N-(2-fluoro-3-hydroxy-3-methylbutyl)-7-(isopropylamino)-2-phenylpyrazolo[1,5-a]pyrimidine-6-carboxamide]	57	> 10000	>175
CC(C)Nc1c(C(=O)NCCC(C)(C)O)cnn2cc(-c3cn[nH]c3)nc12 [Example 107, N-(3-hydroxy-3-methylbutyl)-8-(isopropylamino)-2-(1H-pyrazol-4-yl)imidazo[1,2-b]pyridazine-7-carboxamide]	90	> 50000	>556
CC(C)Nc1c(C(=O)NCCNS(C)(=O)=O)cnc2cc(-c3ccncc3F)nn12 [Example 161, 2-(3-fluoropyridin-4-yl)-7-(isopropylamino)-N-(2-(methylsulfonamido)ethyl) pyrazolo[1,5-a]pyrimidine-6-carboxamide]	160	> 10000	>63
CC(C)Nc1c(C(=O)NC[C@@H](F)C(C)(C)O)cnc2cc(-c3cccc(=O)[nH]3)nn12 [Example 145, (R)—N-(2-fluoro-3-hydroxy-3-methylbutyl)-7-(isopropylamino)-2-(6-oxo-1,6-dihydropyridin-2-yl) pyrazolo[1,5-a]pyrimidine-6-carboxamide]	300	> 50000	>167
COc1ccc(-c2cc3c(NC4CCOCC4)c(C(=O)NC[C@@H](F)C(C)(C)O)cnn3c2)cn1 [Example 10, (R)—N-(2-fluoro-3-hydroxy-3-methylbutyl)-6-(6-methoxypyridin-3-yl)-4-((tetrahydro-2H-pyran-4-yl)amino)pyrrolo[1,2-b]pyridazine-3-carboxamide]	57	> 10000	>175
COC(=O)c1cncc(-c2cc3ncc(C(=O)NC[C@@H](F)C(C)(C)O)c(NC(C)C)n3n2)c1 [Example 149, methyl (R)-5-(6-((2-fluoro-3-hydroxy-3-methylbutyl)carbamoyl)-7-(isopropylamino)pyrazolo[1,5-a]pyrimidin-2-yl)nicotinate]	210	> 50000	>238
CC(C)(O)[C@H](F)CNC(=O)c1cnn2cc(-c3ccncc3)cc2c1NC1CCOCC1 [Example 9, (R)—N-(2-fluoro-3-hydroxy-3-methylbutyl)-6-(pyridin-4-yl)-4-((tetrahydro-2H-pyran-4-yl)amino) pyrrolo[1,2-b] pyridazine-3-carboxamide]	17	> 50000	>2941
CC(C)Nc1c(C(=O)NC[C@@H](F)C(C)(C)O)cnn2cc(-c3ccnn3C)cc12 [Example 33, (R)—N-(2-fluoro-3-hydroxy-3-methylbutyl)-4-(isopropylamino)-6-(1-methyl-1H-pyrazol-5-yl) pyrrolo[1,2-b]pyridazine-3-carboxamide]	26	> 50000	>1923
CC(C)Nc1c(C(=O)NC[C@@H](F)C(C)(C)O)cnn2cc(C#N)cc12 [Example 35, (R)-6-cyano-N-(2-fluoro-3-hydroxy-3-methylbutyl)-4-(isopropylamino)pyrrolo[1,2-b]pyridazine-3-carboxamide]	190	> 50000	>263
CC(C)Nc1c(C(=O)NC[C@@H](F)C(C)(C)O)cnn2cc(-c3ccccn3)cc12 [Example 16, (R)—N-(2-fluoro-3-hydroxy-3-methylbutyl)-4-(isopropylamino)-6-(pyridin-2-yl)pyrrolo[1,2-b]pyridazine-3-carboxamide]	17	> 50000	>2941
CC(C)(O)CCNc1c(C(=O)NC[C@@H](F)C(C)(C)O)cnn2cc(-c3cccc(F)c3)cc12 [Example 26, (R)—N-(2-fluoro-3-hydroxy-3-methylbutyl)-6-(3-fluorophenyl)-4-((3-hydroxy-3-methylbutyl)amino)pyrrolo[1,2-b] pyridazine-3-carboxamide]	370	> 50000	>135
Cc1cc(F)ncc1-c1cc2c(NC(C)C)c(C(=O)N[C@H]3CC[C@H](C(=O)N4CCOCC4)CC3)cnn2c1 [Example 83, 6-(6-fluoro-4-methylpyridin-3-yl)-4-(isopropylamino)-N-((1r,4r)-4-(morpholine-4-carbonyl)cyclohexyl)pyrrolo[1,2-b]pyridazine-3-carboxamide]	23	~49000	~2130
CC(C)(O)[C@H](F)CNC(=O)c1cnc2cc(-c3cccnc3)nn2c1N[C@H]1CCC[C@H]1O [Example 139, N—((R)-2-fluoro-3-hydroxy-3-methylbutyl)-7-(((1S,2R)-2-hydroxycyclopentyl)amino)-2-(pyridin-3-yl)pyrazolo[1,5-a] pyrimidine-6-carboxamide]	250	> 50000	>200
CC(C)Nc1c(C(=O)NC[C@@H](F)C(C)(C)O)cnn2cc(-c3cccc(CN4CCOCC4)c3)cc12 [Example 14, (R)—N-(2-fluoro-3-hydroxy-3-methylbutyl)-4-(isopropylamino)-6-(3-(morpholinomethyl)phenyl) pyrrolo[1,2-b]pyridazine-3-carboxamide]	1670	> 10000	>6
Cc1ncccc1-c1cc2ncc(C(=O)NC[C@@H](F)C(C)(C)O)c(NC(C)C)n2n1 [Example 132, (R)—N-(2-fluoro-3-hydroxy-3-methylbutyl)-7-(isopropylamino)-2-(2-methylpyridin-3-yl)pyrazolo[1,5-a]pyrimidine-6-carboxamide]	230	> 50000	>217
CC(C)Nc1c(C(=O)NC[C@@H](F)C(C)(C)O)cnn2cc(-c3cncs3)nc12 [Example 102, (R)—N-(2-fluoro-3-hydroxy-3-methylbutyl)-8-(isopropylamino)-2-(thiazol-5-yl)imidazo[1,2-b]pyridazine-7-carboxamide]	22	> 50000	>2273
CC(C)Nc1c(C(=O)NCCN2CCOCC2)cnn2cc(-c3cn[nH]c3)nc12 [Example 110, 8-(isopropylamino)-N-(2-morpholinoethyl)-2-(1H-pyrazol-4-yl) imidazo[1,2-b]pyridazine-7-carboxamide]	150	> 50000	>333
CC(C)Nc1c(C(=O)NC[C@@H](F)C(C)(C)O)cnn2cc(-c3cccnc3F)cc12 [Example 7, (R)—N-(2-fluoro-3-hydroxy-3-methylbutyl)-6-(2-fluoropyridin-3-yl)-4-(isopropylamino)pyrrolo[1,2-b]pyridazine-3-carboxamide]	6.4	> 10000	>1563
CC(C)Nc1c(C(=O)NC[C@@H](F)C(C)(C)O)cnn2cc(Nc3cc(C#N)ccn3)cc12 [Example 41, (R)-6-((4-cyanopyridin-2-yl)amino)-N-(2-fluoro-3-hydroxy-3-methylbutyl)-4-(isopropylamino)pyrrolo[1,2-b]pyridazine-3-carboxamide]	620	> 50000	>81
CC(C)Nc1c(C(=O)NC[C@@H](F)C(C)(C)O)cnc2cc(-c3ncco3)nn12 [Example 134, (R)—N-(2-fluoro-3-hydroxy-3-methylbutyl)-7-(isopropylamino)-2-(oxazol-2-yl)pyrazolo[1,5-a]pyrimidine-6-carboxamide]	220	> 50000	>227
CC(=O)N1CCC(NC(=O)c2cnn3cc(-c4ccncc4F)nc3c2NC(C)C)CC1 [Example 112, N-(1-acetylpiperidin-4-yl)-2-(3-fluoropyridin-4-yl)-8-(isopropylamino)imidazo[1,2-b]pyridazine-7-carboxamide]	11	> 10000	>909
CC(C)Nc1c(C(=O)NC[C@@H](F)C(C)(C)O)cnc2cc(-c3cccc(F)c3)nn12 [Example 140, (R)—N-(2-fluoro-3-hydroxy-3-methylbutyl)-2-(3-fluorophenyl)-7-(isopropylamino)pyrazolo[1,5-a]pyrimidine-6-carboxamide]	82	> 50000	>610
